The values that follow come from BindingDB's records for patent US20230270751 (Reviral, 2023).

The target in the assay is T1, Nucleoprotein (Human respiratory syncytial virus A (strain A2), UniProt P03418).
T1 sequence (P03418 whole entry): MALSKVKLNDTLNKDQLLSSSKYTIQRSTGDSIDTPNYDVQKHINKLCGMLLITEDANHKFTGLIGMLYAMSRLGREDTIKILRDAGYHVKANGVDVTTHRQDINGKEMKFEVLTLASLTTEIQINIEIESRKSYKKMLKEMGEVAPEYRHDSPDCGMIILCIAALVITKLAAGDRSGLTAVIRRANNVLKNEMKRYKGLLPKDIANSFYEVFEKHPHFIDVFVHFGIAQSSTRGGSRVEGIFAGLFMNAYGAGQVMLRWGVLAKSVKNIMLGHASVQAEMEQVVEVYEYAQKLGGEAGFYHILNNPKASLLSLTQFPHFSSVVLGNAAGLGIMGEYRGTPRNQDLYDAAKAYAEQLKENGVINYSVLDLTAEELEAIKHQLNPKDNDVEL
The assay can be described thus: Not found.
Text: Not found
Regarding `O=C(N[C@H]1N=C(c2ccccc2)c2cccc(F)c2NC1=O)c1c(-c2ccccc2F)nn2c1OCC(C1CC1)C2` (stereo not given in full) [US20230270751, Example 13], the EC50 (in general, the concentration at which the effect is half-maximal) worked out at 28 nM.

Consider `CN(C(=O)OC(C)(C)C)C1COc2c(C(=O)N[C@H]3N=C(c4ccccc4)c4cccc(F)c4NC3=O)c(-c3ccccc3F)nn2C1` (stereo not given in full) [US20230270751, Example 107], for which the midpoint of the response, the EC50, lay at 93 nM. In the case of `O=C(N[C@H]1N=C(c2ccccc2)c2cccc(F)c2NC1=O)c1c(-c2ccccc2F)nn2c1OCC(CN1CCOCC1)C2` (stereo not given in full) [US20230270751, Example 173], the concentration for a half-maximal effect (EC50) was determined as 91 nM.

For `O=C(N[C@H]1N=C(c2ccccc2)c2cccc(F)c2NC1=O)c1c(-c2ccccc2F)nn2c1OCC(CN1CCCC1)C2` (stereo not given in full) [US20230270751, Example 182], the concentration for a half-maximal effect (EC50) was 78 nM.

`O=C(N[C@H]1N=C(c2ccccc2)c2cccc(F)c2NC1=O)c1c(-c2c(F)cccc2F)nn2c1OCCC2` [US20230270751, Example 196]: the EC50 was 25 nM.
